Reference: patent US9682961B2, “Quinazoline derivative” (CARNA BIOSCIENCES, INC., priority 2013, dated 2017)

Key:
[1] = system: AXIN2 gene expression; experiment: Expression level of Wnt/β-catenin target gene AXIN2 by real-time PCR in HCT116 cells; type: cell-based, human; conditions: 10 and 3 μM, 24 hours
Procedure: (§1) Effects of the compound of the present invention on Wnt/β-catenin signaling activity were studied using the real-time PCR method as well as using as an indicator changes in expression levels of target genes of the Wnt/β-catenin signaling pathway. To a RPMI 1640 medium (NACALAI TESQUE, INC.), 10% FBS (AusGeneX PTY LTD.) and 1% Penicillin/Streptomycin (NACALAI TESQUE, INC.) were added to prepare a cell culture medium (hereinafter referred to as medium 1). In a T75 flask, HCT116 cells (ATCC No. CCL-247) were added to the medium 1. The cells in the flask were cultured in the 5% CO2 incubator. The cultured HCT116 cells were diluted with the medium 1 so as to have a cell concentration of 1.1×10^5 cells/mL. Into the T75 flask, 13.5 mL of the diluted cells was seeded, followed by culturing overnight in the 5% CO2 incubator. […] Total RNA concentration was measured by a microspectrophotometer (Thermo Fisher Scientific Inc., Nano Drop ND-1000). […] The results were calculated as the expression ratio of the target gene to the endogenous control gene (β-Actin) by the comparative Ct method using a DMSO group as a reference.

[2] = system: c-MYC gene expression; experiment: Expression level of Wnt/β-catenin target gene c-MYC by real-time PCR in HCT116 cells; type: cell-based, human; conditions: 10 and 3 μM, 24 hours
Procedure: as §1

[3] = system: c-MYC protein expression; experiment: Expression level of Wnt/β-catenin target protein c-MYC by western blotting in HCT116 cells; type: cell-based; conditions: Homo sapiens, 24 hours, read-out: Inhibition rate (%) c-MYC protein
Procedure: Expression levels of target proteins of the Wnt/β-catenin signaling pathway was analyzed by western blotting method, and effects of the compound of the present invention on Wnt/β-catenin signaling activity were studied by using a change of these levels as an indicator. HCT116 cells cultured in the same manner as in Test Example 2 were diluted with the medium 1 so as to have a cell concentration of 5×10^5 cells/mL, and 5 mL of the diluted cells were seeded into T25 flasks, followed by culturing overnight in the 5% CO2 incubator. Next day, solutions of the compound to be tested obtained by diluting 10 and 3 mM DMSO stock solutions of the compound to be tested 100-fold with the medium 1 were added to each flask so that the amount of the solution in the flask was one tenth of the amount of the final solution (final concentrations of the compound to be tested: 10 and 3 μM). […] Supernatant was recovered by centrifugal operation (15,000 rpm, 10 min.) and amounts of proteins were determined. […] Thereafter, using a CCD camera (GE Healthcare Co., ImageQuant LAS 500), the respective bands were detected by chemiluminescence. The detected bands were quantified by densitometry (GE Healthcare Co., ImageQuant TL v8.1.0.0). Inhibition rates were calculated from the intensities of the bands in the respective groups, with the luminescence of the band of the DMSO added group being 100%. […]

For `O[C@H]1CC[C@@H](Oc2cccc3cnc(Nc4ccc5nc[nH]c5c4)nc23)CC1` [Example 1, cis-4-({2-[(1H-benzo[d]imidazol-6-yl)amino]quinazolyn-8-yl}oxy)cyclohexanol], the AXIN2 gene expression [1] was “inhibited the expression of AXIN2 and c-MYC”, the c-MYC gene expression [2] was “inhibited the expression of AXIN2 and c-MYC” and the inhibition at 3 µM ([3]; HCT-116, 3 μM) was 63.9%. It also gave an inhibition at 10 µM ([3]; HCT-116, 10 μM) of 90.2%.
